Measured values: PubChem BioAssay (NCI)
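Values below derive from 48-hour exposures of cells grown in 96-well plates, with endpoints linearly interpolated between the two concentrations bracketing the appropriate inhibition level. TGI denotes the concentration required for complete inhibition of growth.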

How the values were obtained:
Experiment in all cases: DTP human tumour cell line panel, 48 h
IGROV1 ovarian = test system: IGROV1 ovarian
SN12C renal = test system: SN12C renal
NCI/ADR-RES ovarian = test system: NCI/ADR-RES ovarian
SW-620 colon = test system: SW-620 colon
T-47D breast = test system: T-47D breast
CAKI-1 renal = test system: CAKI-1 renal
MCF7 breast = test system: MCF7 breast
CCRF-CEM leukemia = test system: CCRF-CEM leukemia
NCI-H522 lung = test system: NCI-H522 lung
LOX IMVI melanoma = test system: LOX IMVI melanoma
DU-145 prostate = test system: DU-145 prostate
UACC-257 melanoma = test system: UACC-257 melanoma
SK-OV-3 ovarian = test system: SK-OV-3 ovarian
HCT-116 colon = test system: HCT-116 colon
HS 578T breast = test system: HS 578T breast
SK-MEL-2 melanoma = test system: SK-MEL-2 melanoma
OVCAR-4 ovarian = test system: OVCAR-4 ovarian
SNB-19 CNS = test system: SNB-19 CNS
A549 NSCLC = test system: A549 NSCLC
TK-10 renal = test system: TK-10 renal
MDA-MB-435 = test system: MDA-MB-435
UACC-62 melanoma = test system: UACC-62 melanoma
M14 melanoma = test system: M14 melanoma
COLO 205 colon = test system: COLO 205 colon
HCT-15 colon = test system: HCT-15 colon
NCI-H226 lung = test system: NCI-H226 lung
HCC-2998 colon = test system: HCC-2998 colon
EKVX NSCLC = test system: EKVX NSCLC
NCI-H460 lung = test system: NCI-H460 lung
MDA-MB-231 breast = test system: MDA-MB-231 breast
SF-295 CNS = test system: SF-295 CNS
OVCAR-3 ovarian = test system: OVCAR-3 ovarian
ACHN renal = test system: ACHN renal
NCI-H23 lung = test system: NCI-H23 lung
MDA-N = test system: MDA-N
UO-31 renal = test system: UO-31 renal
HOP-62 NSCLC = test system: HOP-62 NSCLC
RPMI-8226 leukemia = test system: RPMI-8226 leukemia
SNB-75 CNS = test system: SNB-75 CNS
SK-MEL-28 melanoma = test system: SK-MEL-28 melanoma
U251 CNS = test system: U251 CNS
SF-268 CNS = test system: SF-268 CNS
HT29 colon = test system: HT29 colon
KM12 colon = test system: KM12 colon
MALME-3M melanoma = test system: MALME-3M melanoma
K-562 leukemia = test system: K-562 leukemia
PC-3 prostate = test system: PC-3 prostate
OVCAR-8 ovarian = test system: OVCAR-8 ovarian
786-0 renal = test system: 786-0 renal
OVCAR-5 ovarian = test system: OVCAR-5 ovarian
SF-539 CNS = test system: SF-539 CNS
A498 renal = test system: A498 renal
MOLT-4 leukemia = test system: MOLT-4 leukemia
SK-MEL-5 melanoma = test system: SK-MEL-5 melanoma
HL-60(TB) leukemia = test system: HL-60(TB) leukemia
SR leukemia = test system: SR leukemia
HOP-92 NSCLC = test system: HOP-92 NSCLC
RXF 393 renal = test system: RXF 393 renal

For `CC(=O)c1sc2c(c1OC(=O)c1ccc(Cl)cc1Cl)c(=O)n(-c1ccccc1)c(=S)n2-c1ccccc1`, which TGI (IGROV1 ovarian) is on record?
The TGI was 36.1 µM.

And the TGI (SN12C renal)?
Its TGI is 4.35 µM.

And the TGI (NCI/ADR-RES ovarian)?
The TGI was 20.2 µM.

What about the TGI (SW-620 colon) of the same compound?
The TGI was 48.2 µM.

And the TGI (T-47D breast)?
Its TGI is 82.3 µM.

And the TGI (CAKI-1 renal)?
The TGI was 25.7 µM.

What about the TGI (MCF7 breast) of the same compound?
The TGI was 47.1 µM.

And the TGI (CCRF-CEM leukemia)?
The TGI was 4.99 µM.

What about the TGI (NCI-H522 lung) of the same compound?
Its TGI is 15.1 µM.

And the TGI (LOX IMVI melanoma)?
Its TGI is 1.19 µM.

And the TGI (DU-145 prostate)?
The TGI was > 100 µM.

And the TGI (UACC-257 melanoma)?
The TGI was 30 µM.

What about the TGI (SK-OV-3 ovarian) of the same compound?
Its TGI is 7.77 µM.

And the TGI (HCT-116 colon)?
The TGI was 37.5 µM.

And the TGI (HS 578T breast)?
Its TGI is 1.4 µM.

What about the TGI (SK-MEL-2 melanoma) of the same compound?
Its TGI is 1.41 µM.

What about the TGI (OVCAR-4 ovarian) of the same compound?
Its TGI is 54 µM.

And the TGI (SNB-19 CNS)?
Its TGI is 14.2 µM.

What about the TGI (A549 NSCLC) of the same compound?
The TGI was > 90 µM.

And the TGI (TK-10 renal)?
The TGI was 58.2 µM.

And the TGI (MDA-MB-435)?
Its TGI is 31.9 µM.

What about the TGI (UACC-62 melanoma) of the same compound?
The TGI was 29.2 µM.

What about the TGI (M14 melanoma) of the same compound?
The TGI was 2.35 µM.

And the TGI (COLO 205 colon)?
The TGI was 15 µM.

What about the TGI (HCT-15 colon) of the same compound?
Its TGI is 11.2 µM.

What about the TGI (NCI-H226 lung) of the same compound?
The TGI was 2.53 µM.

What about the TGI (HCC-2998 colon) of the same compound?
Its TGI is 22.2 µM.

What about the TGI (EKVX NSCLC) of the same compound?
The TGI was 49.7 µM.

And the TGI (NCI-H460 lung)?
The TGI was 14.3 µM.

And the TGI (MDA-MB-231 breast)?
Its TGI is 11.7 µM.

And the TGI (SF-295 CNS)?
The TGI was 6.51 µM.

What about the TGI (OVCAR-3 ovarian) of the same compound?
The TGI was 39 µM.

And the TGI (ACHN renal)?
Its TGI is 5.21 µM.

And the TGI (NCI-H23 lung)?
The TGI was 35.3 µM.

What about the TGI (MDA-N) of the same compound?
The TGI was 20 µM.

What about the TGI (UO-31 renal) of the same compound?
Its TGI is 4.48 µM.

And the TGI (HOP-62 NSCLC)?
Its TGI is 16.7 µM.

What about the TGI (RPMI-8226 leukemia) of the same compound?
Its TGI is 0.64 µM.

What about the TGI (SNB-75 CNS) of the same compound?
Its TGI is 4.19 µM.

What about the TGI (SK-MEL-28 melanoma) of the same compound?
Its TGI is > 48.1 µM.

And the TGI (U251 CNS)?
Its TGI is 25.6 µM.

What about the TGI (SF-268 CNS) of the same compound?
Its TGI is 13.7 µM.

And the TGI (HT29 colon)?
Its TGI is 3.01 µM.

What about the TGI (KM12 colon) of the same compound?
The TGI was 27 µM.

What about the TGI (MALME-3M melanoma) of the same compound?
The TGI was 0.841 µM.

What about the TGI (K-562 leukemia) of the same compound?
The TGI was 46.1 µM.

And the TGI (PC-3 prostate)?
The TGI was 13.7 µM.

What about the TGI (OVCAR-8 ovarian) of the same compound?
Its TGI is 5.73 µM.

What about the TGI (786-0 renal) of the same compound?
The TGI was 29.6 µM.

And the TGI (OVCAR-5 ovarian)?
The TGI was 8.96 µM.

And the TGI (SF-539 CNS)?
The TGI was 0.908 µM.

And the TGI (A498 renal)?
Its TGI is 1.4 µM.

What about the TGI (MOLT-4 leukemia) of the same compound?
The TGI was 2.35 µM.

What about the TGI (SK-MEL-5 melanoma) of the same compound?
Its TGI is 7.17 µM.

And the TGI (HL-60(TB) leukemia)?
The TGI was 18.9 µM.

And the TGI (SR leukemia)?
Its TGI is > 100 µM.

And the TGI (HOP-92 NSCLC)?
The TGI was 16.5 µM.

`CCCC[C@@H](C)/C=C1\CN2CCC[C@H]2[C@@](C)(O)[C@@H]1O` was tested. Which TGI (IGROV1 ovarian) did it give?
Its TGI is > 100 µM.

And the TGI (NCI/ADR-RES ovarian)?
Its TGI is > 100 µM.

What about the TGI (RXF 393 renal) of the same compound?
The TGI was 38.1 µM.

And the TGI (SW-620 colon)?
The TGI was > 100 µM.

And the TGI (T-47D breast)?
Its TGI is > 100 µM.

What about the TGI (CAKI-1 renal) of the same compound?
The TGI was 71.2 µM.

What about the TGI (MCF7 breast) of the same compound?
The TGI was > 100 µM.

What about the TGI (CCRF-CEM leukemia) of the same compound?
Its TGI is > 100 µM.

And the TGI (NCI-H522 lung)?
The TGI was > 100 µM.

And the TGI (LOX IMVI melanoma)?
The TGI was > 100 µM.

What about the TGI (DU-145 prostate) of the same compound?
Its TGI is 60.4 µM.

And the TGI (UACC-257 melanoma)?
Its TGI is > 100 µM.

What about the TGI (SK-OV-3 ovarian) of the same compound?
Its TGI is > 100 µM.

What about the TGI (HS 578T breast) of the same compound?
The TGI was > 100 µM.

What about the TGI (SK-MEL-2 melanoma) of the same compound?
Its TGI is > 100 µM.

What about the TGI (OVCAR-4 ovarian) of the same compound?
Its TGI is > 100 µM.

What about the TGI (SNB-19 CNS) of the same compound?
The TGI was > 100 µM.

And the TGI (A549 NSCLC)?
Its TGI is > 100 µM.

And the TGI (TK-10 renal)?
Its TGI is > 100 µM.

And the TGI (MDA-MB-435)?
The TGI was > 100 µM.

What about the TGI (UACC-62 melanoma) of the same compound?
The TGI was > 100 µM.

What about the TGI (M14 melanoma) of the same compound?
The TGI was > 100 µM.

What about the TGI (COLO 205 colon) of the same compound?
The TGI was > 100 µM.

What about the TGI (HCT-15 colon) of the same compound?
The TGI was > 100 µM.

And the TGI (NCI-H226 lung)?
Its TGI is > 100 µM.

What about the TGI (HCC-2998 colon) of the same compound?
Its TGI is > 100 µM.

And the TGI (EKVX NSCLC)?
The TGI was > 100 µM.

What about the TGI (NCI-H460 lung) of the same compound?
The TGI was > 100 µM.

And the TGI (MDA-MB-231 breast)?
Its TGI is > 100 µM.

What about the TGI (SF-295 CNS) of the same compound?
The TGI was > 100 µM.

What about the TGI (OVCAR-3 ovarian) of the same compound?
Its TGI is > 100 µM.

And the TGI (ACHN renal)?
The TGI was > 100 µM.

What about the TGI (NCI-H23 lung) of the same compound?
Its TGI is > 100 µM.

What about the TGI (MDA-N) of the same compound?
The TGI was > 100 µM.

And the TGI (UO-31 renal)?
Its TGI is > 100 µM.

And the TGI (HOP-62 NSCLC)?
Its TGI is > 100 µM.

What about the TGI (RPMI-8226 leukemia) of the same compound?
The TGI was > 100 µM.

And the TGI (SNB-75 CNS)?
The TGI was 85.1 µM.

And the TGI (SK-MEL-28 melanoma)?
Its TGI is > 100 µM.

And the TGI (U251 CNS)?
Its TGI is > 100 µM.

And the TGI (SF-268 CNS)?
The TGI was > 100 µM.

What about the TGI (HT29 colon) of the same compound?
The TGI was > 100 µM.

And the TGI (KM12 colon)?
Its TGI is > 100 µM.

And the TGI (MALME-3M melanoma)?
Its TGI is > 100 µM.

What about the TGI (K-562 leukemia) of the same compound?
Its TGI is > 100 µM.

And the TGI (PC-3 prostate)?
Its TGI is > 100 µM.

What about the TGI (OVCAR-8 ovarian) of the same compound?
Its TGI is > 100 µM.

What about the TGI (786-0 renal) of the same compound?
Its TGI is > 100 µM.

And the TGI (OVCAR-5 ovarian)?
The TGI was > 100 µM.

And the TGI (SF-539 CNS)?
The TGI was > 100 µM.

And the TGI (A498 renal)?
The TGI was > 100 µM.

What about the TGI (MOLT-4 leukemia) of the same compound?
The TGI was > 100 µM.

What about the TGI (SK-MEL-5 melanoma) of the same compound?
Its TGI is > 100 µM.

And the TGI (HL-60(TB) leukemia)?
The TGI was 11 µM.

And the TGI (SR leukemia)?
The TGI was > 100 µM.

What about the TGI (HOP-92 NSCLC) of the same compound?
Its TGI is 73.6 µM.
